According to patent US5696151A, “Compounds useful for the inhibition of the replication of HIV-1 and HIV-1 mutants” (priority 1995, dated 1997):
Values after ≈ are worked out from the molar mass of the structure shown.

How the values were obtained:
Assay type in all cases: cell-based
[1] = test system: HIV-1/188-Leu; assay: Inhibition of HIV-1 induced syncytium formation in CEM cells, RT mutant 188-Leu; conditions: Human immunodeficiency virus 1, CCRF-CEM, 96 h, Table 2B, day 4, averages of 2 to 3 independent experiments, read-out: Antiviral Activity of Comparative Compounds EC50, 188-Leu
From the text: (§1) CEM cells were obtained from the American Tissue Cell Culture Collection (Rockville, Md.). HIV-1(IIIB) was originally obtained from the culture supernatant of persistently HIV-1-infected H9 cells and was provided by R. C. Gallo and M. Popovic (National Cancer Institute, National Institutes of Health, Bethesda, Md.). […] 67: 5353-5359 (1993); HIV-1/Lys-138 ("Lys-138") was selected for resistance against TSAO-m^3T as described in Balzarini et al, Virology 192: 246-253 (1993) and Balzarini et al, Proc. Nat. Acad. Sci. USA 90: 6952-6956 (1993); HIV-1/181-Cys ("181-Cys") was selected for resistance against pyridinone L-697,661 as described in Balzarini et al, Virology 192: 246-253 (1993); and HIV-1/188-His ("188-His") was selected for resistance against HEPT as described in Balzarini et al, Mol. Pharmocol. 44: 694-701 (1993). 188-His was then further converted to HIV-1/188-Leu "188-Leu") upon further passage in cell culture in the absence of the HEPT.
(§2) CEM cells were suspended at ≈300,000 cells per ml of culture medium and infected with approximately 100 CCID50 (CCID50 being the 50% cell culture infective dose) of HIV-1(IIIB) or one of the HIV-1 RT mutant strains described above. Then 100 μl of the infected cell suspensions was added to 200 μl microtiter plate wells containing 100 μl of appropriate serial (5-fold) dilutions of the test compounds. The inhibitory effect of the test compounds on HIV-1 induced syncytium formation in CEM cells was examined microscopically on day 4 post infection.

[2] = test system: HIV-1/100-Ile; assay: Inhibition of HIV-1 induced syncytium formation in CEM cells, RT mutant 100-Ile; conditions: Human immunodeficiency virus 1, CCRF-CEM, 96 h, Table 2B, day 4, averages of 2 to 3 independent experiments, read-out: Antiviral Activity of Comparative Compounds EC50, 100-Ile
Procedure, shortened: (§3)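 Mutant strains were selected in culture for resistance to NNRTIs such as TSAO-m^3T, pyridinone L-697,661 or HEPT. Antiviral effect is inhibition of syncytium formation in infected CEM cells (~100 CCID50), assessed microscopically at day 4.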

[3] = test system: HIV-1/103-Asn; assay: Inhibition of HIV-1 induced syncytium formation in CEM cells, RT mutant 103-Asn; conditions: Human immunodeficiency virus 1, CCRF-CEM, 96 h, Table 2B, day 4, averages of 2 to 3 independent experiments, read-out: Antiviral Activity of Comparative Compounds EC50, 103-Asn
From the text: as §1, §2

[4] = test system: HIV-1/Lys-138; assay: Inhibition of HIV-1 induced syncytium formation in CEM cells, RT mutant 138-Lys; conditions: Human immunodeficiency virus 1, CCRF-CEM, 96 h, Table 2B, day 4, averages of 2 to 3 independent experiments, read-out: Antiviral Activity of Comparative Compounds EC50, 138-Lys
Procedure, shortened: as §3

[5] = in vitro; conditions: human, cem cells, CC50 (50% cytostatic concentration), Table 2B; CEM cell proliferation; averages of 2 to 3 independent experiments
Procedure, shortened: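 In CEM cells, the cytostatic value is the compound concentration giving 50% inhibition of cell proliferation. Parallel work used HIV-1(IIIB) and culture-selected resistant strains Lys-138, 181-Cys, 188-His and 188-Leu.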

[6] = test system: HIV-1/181-Cys; assay: Inhibition of HIV-1 induced syncytium formation in CEM cells, RT mutant 181-Cys; conditions: Human immunodeficiency virus 1, CCRF-CEM, 96 h, Table 2B, day 4, averages of 2 to 3 independent experiments, read-out: Antiviral Activity of Comparative Compounds EC50, 181-Cys
Procedure, shortened: as §3

[7] = test system: HIV-1/106-Ala; assay: Inhibition of HIV-1 induced syncytium formation in CEM cells, RT mutant 106-Ala; conditions: Table 2B, day 4, averages of 2 to 3 independent experiments; for EC50: Human immunodeficiency virus 1, CCRF-CEM, 96 h, read-out: Antiviral Activity of Comparative Compounds EC50, 106-Ala
Procedure, shortened: as §3

[8] = test system: HIV-1(IIIB); assay: Inhibition of HIV-1 induced syncytium formation in CEM cells, wild type; conditions: Table 2B, WT = HIV-1(IIIB), day 4, averages of 2 to 3 independent experiments; for EC50: Human immunodeficiency virus 1, IIIB, CCRF-CEM, 96 h, read-out: Antiviral Activity of Comparative Compounds EC50, WT
Procedure, shortened: as §3

Structure (SMILES) | EC50 [1] [µg/mL] | EC50 [2] [µg/mL] | EC50 [3] [µg/mL] | EC50 [4] [µg/mL] | CC50 [5] [µg/mL] | EC50 [6] [µg/mL] | EC50 [7] [µg/mL] | EC50 [8] [µg/mL] | Antiviral Activity of Comparative Compounds EC50, 106-Ala [7] [µg/mL] | Antiviral Activity of Comparative Compounds EC50, WT [8] [µg/mL]
C=C(Cl)COc1cc(NC(=S)c2ccsc2C)ccc1C#N [Compound 25] | > 2 | 0.2 (≈ 0.573 µM) | 0.4 (≈ 1.15 µM) | 0.13 (≈ 0.373 µM) | 3.3 (≈ 9.46 µM) | 0.44 (≈ 1.26 µM) | 0.2 (≈ 0.573 µM) | 0.03 (≈ 0.086 µM) | – | –
CC=CCSc1cc(NC(=O)c2ccoc2C)ccc1Cl [Compound 35] | > 2 | 1.5 (≈ 4.66 µM) | 0.55 (≈ 1.71 µM) | 0.7 (≈ 2.18 µM) | 5.9 (≈ 18.3 µM) | 1.6 (≈ 4.97 µM) | 0.8 (≈ 2.49 µM) | 0.16 (≈ 0.497 µM) | – | –
Cc1occc1C(=S)Nc1ccc(Cl)c(C=NOC(C)(C)C)c1 [Compound 3] | 0.91 (≈ 2.59 µM) | 0.057 (≈ 0.162 µM) | 0.23 (≈ 0.656 µM) | 0.045 (≈ 0.128 µM) | 5.8 (≈ 16.5 µM) | 0.08 (≈ 0.228 µM) | – | – | 0.03 | 0.0065
Cc1occc1C(=O)Nc1ccc(Cl)c(OCCC(C)C)c1 [Compound 37] | > 2 | ≥ 2 | ≥ 2 | 1.25 (≈ 3.88 µM) | 5 (≈ 15.5 µM) | 1.73 (≈ 5.38 µM) | 1.3 (≈ 4.04 µM) | 0.16 (≈ 0.497 µM) | – | –
Cc1c(C(=O)Nc2ccc(Cl)c(C=NOC(C)(C)C)c2)ccn1C [Compound 38] | > 2 | ≥ 2 | ≥ 2 | ≥ 2 | 5.5 (≈ 15.8 µM) | > 2 | 0.7 (≈ 2.01 µM) | 0.08 (≈ 0.23 µM) | – | –
Cc1occc1C(=S)Nc1ccc(Cl)c(OCC(C)(C)C)c1 [Compound 39] | > 2 | 1.4 (≈ 4.14 µM) | 0.7 (≈ 2.07 µM) | 0.5 (≈ 1.48 µM) | 4.1 (≈ 12.1 µM) | ≥ 2 | > 2 | 0.15 (≈ 0.444 µM) | – | –
CC1=C(C(=S)Nc2ccc(Cl)c(C=NOC(C)(C)C)c2)CCCO1 [Compound 5] | > 2 | 0.055 (≈ 0.15 µM) | 0.08 (≈ 0.218 µM) | 0.04 (≈ 0.109 µM) | 10 (≈ 27.3 µM) | 0.025 (≈ 0.0681 µM) | 0.025 (≈ 0.0681 µM) | 0.013 (≈ 0.0354 µM) | – | –
CC=CCOc1cc(NC(=O)C2=C(CC)OCCS2)ccc1Cl [Compound 43] | > 2 | 1.2 (≈ 3.39 µM) | 1.3 (≈ 3.67 µM) | 1.3 (≈ 3.67 µM) | 11 (≈ 31.1 µM) | > 2 | 4.5 (≈ 12.7 µM) | 0.65 (≈ 1.84 µM) | – | –
CCC1=C(C(=O)Nc2ccc(Cl)c(C=NOC(C)(C)C)c2)SCCO1 [Compound 15] | > 2 | 0.06 (≈ 0.157 µM) | 0.065 (≈ 0.17 µM) | 0.07 (≈ 0.183 µM) | 11.4 (≈ 29.8 µM) | 0.09 (≈ 0.235 µM) | 0.06 (≈ 0.157 µM) | 0.03 (≈ 0.0783 µM) | – | –
CC1=C(C(=O)Nc2ccc(Cl)c(C(=O)OC(C(C)C)C(C)C)c2)SCCO1 [Compound 22] | > 2 | 0.48 (≈ 1.17 µM) | 0.65 (≈ 1.58 µM) | 0.55 (≈ 1.34 µM) | 5.8 (≈ 14.1 µM) | 0.18 (≈ 0.437 µM) | 0.26 (≈ 0.631 µM) | 0.08 (≈ 0.194 µM) | – | –
CC1=C(C(=O)Nc2ccc(Cl)c(C=NOC(C)(C)C)c2)SCCO1 [Compound 18] | > 2 | 0.33 (≈ 0.895 µM) | 0.33 (≈ 0.895 µM) | 0.22 (≈ 0.596 µM) | 8.5 (≈ 23 µM) | 0.13 (≈ 0.352 µM) | 0.15 (≈ 0.407 µM) | 0.014 (≈ 0.038 µM) | – | –
Cc1sccc1C(=O)Nc1ccc(Cl)c(OCCC(C)C)c1 [Compound 33] | > 2 | 0.95 (≈ 2.81 µM) | 1 (≈ 2.96 µM) | 0.62 (≈ 1.84 µM) | 7 (≈ 20.7 µM) | 1.07 (≈ 3.17 µM) | 0.65 (≈ 1.92 µM) | 0.063 (≈ 0.186 µM) | – | –
Cc1sccc1C(=O)Nc1ccc(Cl)c(C(=O)OC(C(C)C)C(C)C)c1 [Compound 32] | > 2 | ≥ 2 | ≥ 2 | ≥ 2 | 4.1 (≈ 10.4 µM) | 0.95 (≈ 2.41 µM) | ≥ 2 | 0.16 (≈ 0.406 µM) | – | –
